Measured values: US10875898B2, “Bioactive protein, use thereof and method for its production” (Koppert B.V., priority 2014, dated 2020)

Assays:
Lotus japonicus = assay: Rhizobium lotii on Lotus japonicus in vitro system, plant growth and nodule density; format: in vivo; settings: HYTLO1 0.07 μM, 6PP 0.002 μM, 4 weeks after seeding; for plant growth promotion effect of Rhizobia on Lotus japonicus: HA 0.001 μM in MS media; for nodule formation (number of nodules per cm of root): HA 0.001 μM, with R. loti
Procedure: Wt+Rhz=treatment with R. loti, Wt-Rhz without R. loti. (D) Growth measured after 4 weeks, in the absence (cont) or presence of Rhizoba R. loti ((+) Rhiz). The purified molecules were added to the sterile MS media and poured into Petri dishes. Data were recorded 4 weeks after seeding of L. japonicus.
FIG. 18. […] (HYT=HYTLO1 at 0.07 μM, 6PP at 0.002 μM, HA=Harzianic Acid at 0.001 μM). Wt=control with R. loti without metabolites. The purified molecules were added to the sterile MS media and poured into Petri dishes. Average number of nodules per cm of root are indicated. Data were recorded 4 weeks after seeding of L. japonicus.
In order to test the effect of HYTLO1, as well as of the secondary metabolites HA and 6PP on the growth promotion activity of Rhizobia, such as Rhizobium sp., on legumimosae plants, we used a standard Rhizobium lotii on Lotus japonicus in vitro system (Barbulova et al., 2005, Functional Plant Biology, 32:529-536). Plant growth and nodule density on the roots were scored four weeks after seeding by comparing untreated controls and the various treatments.

cucumber = assay: combined application of HYTLO1, HA and 6PP on cucumber seed germination and growth promotion; format: in vivo; set-up: Root length, increase % vs. Control / Plant fresh weight, increase % vs. Control / Plant dry weight, increase % vs. Control / plant height, increase % vs. Control: concentration or dose not given beside the values; settings: for Plant dry weight / Root length (cm) / Plant fresh weight / plant height (cm): 30 days after seed coating; for Plant dry weight: SD +− 1.3 g; for Root length (cm): SD +− 2.1 cm; for Plant fresh weight: SD +− 2.5 g; for plant height (cm): drench 10^−7M 6PP and HA, 10^−8M HYTLO1, half or one third dose in combinations, SD +− 2.5 cm; for Seed germination (24 h): coated cucumber seeds on humid filter paper, SD +− 9%
Procedure: Tested metabolites include 6PP and Harzianic Acid, and experiments were performed on seed germination, stem or root elongation as well fresh/dry weight. The results shown in Table 1 were obtained by using cucumber seeds coated with the solutions of the tested compounds, that were then transferred in Petri dishes and left to germinate on filter humid paper. First seed germination was evaluated, then the germinated seedlings were transplanted into pots containing sterilised soil. Other two treatments with the purified molecules were performed at 10 days interval, by drenching the soil with the solutions at the final concentrations of 10^−7M for 6PP and HA, and 10^−8M for HYTLO1. In two-compounds application, half dose of each molecule was used. In three-compound applications, one third of the dose of each molecules was used. Each treatments consisted of 8 plants. Results were collected 30 days after seed coating. Control was produced by adding water instead of the molecule solutions. The effect of the minimal amounts of solvents eventually contained in HA and 6PP solution was preliminary tested, with no differences observed in comparison to water control. The results shown in Table 1 that all of the three tested molecules have a significant beneficial effect on seed germination and plant growth, and that they can be synergistically combined for enhanced effectiveness.

Row | SMILES | plant growth promotion effect of Rhizobia on Lotus japonicus (Lotus japonicus) | nodule formation (number of nodules per cm of root) (Lotus japonicus) | Plant dry weight (cucumber) [g] | Root length (cm) (cucumber) | Plant fresh weight (cucumber) [g] | plant height (cm) (cucumber) | Seed germination (24 h) (cucumber) [%] | Seed germination (24 h), increase % vs. Control (cucumber; vs water control) | Plant dry weight, increase % vs. Control (cucumber; vs water control, 30 days) [%] | Plant fresh weight, increase % vs. Control (cucumber; vs water control, 30 days) [%] | Root length, increase % vs. Control (cucumber; vs water control, 30 days) [%] | plant height, increase % vs. Control (cucumber; vs water control, 30 days) [%]
1 | CCC/C=C/C=C/C(O)=C1/C(=O)C(CC(O)(C(=O)O)C(C)C)N(C)C1=O (centres unmarked) [HA, Harzianic acid] | Enhancement of the effect of Rhizobium lotii | Enhancement of nodule formation | 7.6 | 13.6 | 23.36 | 27.4 | 75 | +25% | 46.1 | 30.1 | 10.7 | 8.4
2 | CCCCCc1cccc(=O)o1 [6PP, 6-Pentyl-α-pyrone] | Enhancement of the effect of Rhizobium lotii | Enhancement of nodule formation | 7.1 | 17.6 | 22.04 | 21.8 | 75 | +25% | 42.3 | 25.9 | 31.1 | –
